Measured values from ChEMBL document CHEMBL4673209, “Discovery of a novel potent GPR40 full agonist” (Bioorg Med Chem Lett, 2018).
Activity calls are given as the source filed them. The rule behind the calls is not given here.

Key:
Cytochrome P450 2C19 = Cytochrome P450 2C19 (Homo sapiens, UniProt P33261); assay: Inhibition of CYP2C19 (unknown origin); type: ADME
Cytochrome P450 1A2 = target: T1, Cytochrome P450 1A2 (Homo sapiens, UniProt P05177); assay: Inhibition of CYP1A2 (unknown origin); type: ADME
T1 sequence (P05177 whole entry): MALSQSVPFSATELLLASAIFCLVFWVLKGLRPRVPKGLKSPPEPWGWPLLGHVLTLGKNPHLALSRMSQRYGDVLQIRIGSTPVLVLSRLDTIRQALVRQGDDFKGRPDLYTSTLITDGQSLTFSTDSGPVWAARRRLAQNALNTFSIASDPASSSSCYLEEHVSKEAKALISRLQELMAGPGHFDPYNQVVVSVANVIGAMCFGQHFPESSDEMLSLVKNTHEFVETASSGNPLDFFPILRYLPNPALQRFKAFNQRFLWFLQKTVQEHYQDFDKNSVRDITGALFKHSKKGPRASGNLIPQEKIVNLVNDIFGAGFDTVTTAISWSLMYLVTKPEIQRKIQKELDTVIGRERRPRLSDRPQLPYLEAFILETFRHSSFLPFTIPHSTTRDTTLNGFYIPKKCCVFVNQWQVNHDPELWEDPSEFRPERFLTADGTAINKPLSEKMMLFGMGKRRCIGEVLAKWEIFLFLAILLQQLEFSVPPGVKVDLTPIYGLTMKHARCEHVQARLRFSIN

[1] = target: T2, Free fatty acid receptor 1 (Homo sapiens, UniProt O14842); assay: Agonist activity at human GPR40 receptor expressed in CHOK1 cells assessed as induction of IP1 accumulation at 10 uM relative to TAK875; type: functional, cell-based; details: CHO-K1, filed as agonist
T2 sequence (O14842 whole entry): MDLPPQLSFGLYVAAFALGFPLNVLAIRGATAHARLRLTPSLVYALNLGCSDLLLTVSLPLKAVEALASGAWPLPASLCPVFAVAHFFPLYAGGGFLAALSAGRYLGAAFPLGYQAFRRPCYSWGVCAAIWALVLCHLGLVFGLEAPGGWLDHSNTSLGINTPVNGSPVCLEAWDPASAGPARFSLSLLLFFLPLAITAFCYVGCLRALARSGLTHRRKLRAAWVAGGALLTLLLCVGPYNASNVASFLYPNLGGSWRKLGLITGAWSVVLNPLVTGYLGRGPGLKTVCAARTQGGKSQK

[2] = Drug metabolism in rat assessed as (3S)-3-cyclopropyl-3-(3-((5-(5-fluoro-2-hydroxypyridin-4-yl)-6-isobutylpyrazin-2-yl)methoxy)phenyl)propanoic acid metabolite formation by MetID studies; type: ADME
Cytochrome P450 3A4 = Cytochrome P450 3A4 (Homo sapiens, UniProt P08684); assay: Inhibition of CYP3A4 (unknown origin) using midazolam as substrate; type: ADME
Sequence of Cytochrome P450 3A4 (P08684 whole entry): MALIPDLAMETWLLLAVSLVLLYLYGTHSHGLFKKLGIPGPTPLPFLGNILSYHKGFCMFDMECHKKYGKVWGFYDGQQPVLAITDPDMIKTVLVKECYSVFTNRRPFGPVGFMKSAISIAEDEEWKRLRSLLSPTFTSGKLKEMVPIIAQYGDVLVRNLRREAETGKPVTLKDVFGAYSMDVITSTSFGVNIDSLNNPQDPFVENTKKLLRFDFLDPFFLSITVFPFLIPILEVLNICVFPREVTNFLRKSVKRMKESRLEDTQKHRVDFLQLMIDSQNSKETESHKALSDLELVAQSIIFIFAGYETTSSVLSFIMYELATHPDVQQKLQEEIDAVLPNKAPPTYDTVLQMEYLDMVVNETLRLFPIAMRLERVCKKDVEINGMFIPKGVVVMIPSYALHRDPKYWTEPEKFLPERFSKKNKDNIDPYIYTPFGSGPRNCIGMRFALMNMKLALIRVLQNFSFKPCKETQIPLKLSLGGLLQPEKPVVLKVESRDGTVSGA

[3] = target: T3, Peroxisome proliferator-activated receptor delta (Homo sapiens) (UniProt Q03181); assay: Agonist activity at PPARbeta (unknown origin)
T3 sequence (whole entry): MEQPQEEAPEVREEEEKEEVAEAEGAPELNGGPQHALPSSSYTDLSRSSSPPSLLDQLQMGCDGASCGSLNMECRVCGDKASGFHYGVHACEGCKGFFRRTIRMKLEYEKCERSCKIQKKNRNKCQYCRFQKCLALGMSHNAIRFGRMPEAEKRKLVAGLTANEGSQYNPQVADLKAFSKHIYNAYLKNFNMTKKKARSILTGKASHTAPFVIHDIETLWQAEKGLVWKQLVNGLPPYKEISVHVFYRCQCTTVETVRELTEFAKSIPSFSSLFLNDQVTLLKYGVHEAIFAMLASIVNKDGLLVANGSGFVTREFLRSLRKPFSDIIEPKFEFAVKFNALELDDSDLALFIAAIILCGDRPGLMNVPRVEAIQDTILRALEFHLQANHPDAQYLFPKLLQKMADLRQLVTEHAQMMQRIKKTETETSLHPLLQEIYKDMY

Mus musculus [4] = assay: Induction of GLP-1 secretion in GPR40 knock-out mouse at 100 mg/kg; type: functional, organism-based
[5] = Drug metabolism in human assessed as (3S)-3-cyclopropyl-3-(3-((5-(5-fluoro-2-hydroxypyridin-4-yl)-6-isobutylpyrazin-2-yl)methoxy)phenyl)propanoic acid metabolite formation by MetID studies; type: ADME
Mus musculus [6] = assay: In vivo agonist activity at GPR40 in C57 mouse assessed as induction of GLP1 secretion at 100 mg/kg; type: functional, organism-based
Rattus norvegicus [7] = assay: Anti-glycemic activity in fasted Sprague-Dawley ZDF rat assessed as reduction in post-prandial hyperglycemia by measuring AUC(0 to 2 hrs) for blood glucose at 10 mg/kg administered daily for 8 days and measured on day 8 by OGTT; type: functional; details: time 8 day
Rattus norvegicus [8] = assay: Anti-glycemic activity in fasted Sprague-Dawley ZDF rat assessed as increase in insulin secretion by measuring insulin level in plasma at 3 mg/kg administered 30 mins prior to glucose challenge measured after 140 mins by OGTT; type: functional; details: time 170 min, 2.833 h
Rattus norvegicus [9] = assay: Anti-glycemic activity in fasted Sprague-Dawley ZDF rat assessed as increase in insulin secretion by measuring insulin level in plasma at 1 mg/kg administered 30 mins prior to glucose challenge measured after 140 mins by OGTT; type: functional; details: time 170 min, 2.833 h
Mus musculus [10] = species on record: Mus musculus; assay: Anti-glycemic activity in C57 mouse assessed as reduction in blood glucose excursion measured for 120 mins by IPGTT; type: functional, organism-based
Mus musculus [11] = species on record: Mus musculus; assay: Anti-glycemic activity in GPR40 knockout mouse assessed as reduction in blood glucose excursion measured for 120 mins by IPGTT; type: functional, organism-based
[12] = target: Free fatty acid receptor 1 (Rattus norvegicus) (UniProt Q8K3T4); assay: Agonist activity at GPR40 receptor in rat INS1(832/13) cells assessed as induction of IP1 accumulation at 10 uM relative to AM1638; type: functional, cell-based; details: INS-1 832/13, filed as agonist
Sequence of Free fatty acid receptor 1 (Rattus norvegicus) (Q8K3T4 whole entry): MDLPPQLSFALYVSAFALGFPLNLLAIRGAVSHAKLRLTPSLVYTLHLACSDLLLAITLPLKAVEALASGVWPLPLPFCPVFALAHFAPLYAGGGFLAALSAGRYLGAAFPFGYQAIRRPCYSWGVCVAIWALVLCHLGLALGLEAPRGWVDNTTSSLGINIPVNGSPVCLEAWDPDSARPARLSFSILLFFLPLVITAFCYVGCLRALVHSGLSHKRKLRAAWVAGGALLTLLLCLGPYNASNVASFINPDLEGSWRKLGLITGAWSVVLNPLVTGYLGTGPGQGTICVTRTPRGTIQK

[13] = target: Free fatty acid receptor 1 (Rattus norvegicus) (UniProt Q8K3T4); assay: Agonist activity at GPR40 receptor in rat INS1(832/13) cells assessed as induction of IP1 accumulation at 10 uM; type: functional, cell-based; details: INS-1 832/13, filed as agonist
[14] = target: Free fatty acid receptor 1 (Rattus norvegicus) (UniProt Q8K3T4); assay: Agonist activity at rat GPR40 receptor expressed in CHOK1 cells assessed as induction of IP1 accumulation at 10 uM relative to AM1638; type: functional, cell-based; details: CHO-K1, filed as agonist
[15] = target: T2, Free fatty acid receptor 1; assay: Agonist activity at human GPR40 receptor expressed in CHOK1 cells assessed as induction of IP1 accumulation; type: functional, cell-based, CHO-K1
[16] = target: T2, Free fatty acid receptor 1; assay: Agonist activity at human GPR40 receptor expressed in CHOK1 cells assessed as induction of IP1 accumulation at 10 uM; type: functional, cell-based; details: CHO-K1, filed as agonist
[17] = Volume of distribution at steady state in rat; type: ADME; details: in vivo, read-out: Vdss
[18] = Cmax in dog; type: ADME, Canis lupus familiaris; details: in vivo
[19] = Clearance in dog; type: ADME, Canis lupus familiaris; details: in vivo
[20] = Oral bioavailability in rat; type: ADME, organism-based; details: in vivo
[21] = Oral bioavailability in dog; type: ADME, organism-based, Canis lupus familiaris; details: in vivo
[22] = Oral bioavailability in cynomolgus monkey; type: ADME, organism-based, Macaca fascicularis; details: in vivo
[23] = Hepatic clearance in dog; type: ADME, Canis lupus familiaris; details: in vivo
[24] = Hepatic clearance in rat; type: ADME; details: in vivo
[25] = Intrinsic clearance in dog assessed as half-life at 1 uM; type: ADME, Canis lupus familiaris
[26] = Intrinsic clearance in human assessed as half-life at 1 uM; type: ADME
[27] = Intrinsic clearance in rat assessed as half-life at 1 uM; type: ADME
[28] = Protein binding in dog plasma; type: ADME, cell-free, Canis lupus familiaris; details: read-out: PPB (converted)
[29] = target: Free fatty acid receptor 1 (Rattus norvegicus, UniProt Q8K3T4); assay: Agonist activity at rat GPR40 transfected in HEK293 cells assessed as increase in intracellular calcium level incubated for 1 hr by Fluo-8 dye based fluorescence analysis; type: functional, cell-based
Sequence of Free fatty acid receptor 1 (Rattus norvegicus, UniProt Q8K3T4) (Q8K3T4 whole entry): as above

Sequence of Cytochrome P450 2C19 (P33261 whole entry): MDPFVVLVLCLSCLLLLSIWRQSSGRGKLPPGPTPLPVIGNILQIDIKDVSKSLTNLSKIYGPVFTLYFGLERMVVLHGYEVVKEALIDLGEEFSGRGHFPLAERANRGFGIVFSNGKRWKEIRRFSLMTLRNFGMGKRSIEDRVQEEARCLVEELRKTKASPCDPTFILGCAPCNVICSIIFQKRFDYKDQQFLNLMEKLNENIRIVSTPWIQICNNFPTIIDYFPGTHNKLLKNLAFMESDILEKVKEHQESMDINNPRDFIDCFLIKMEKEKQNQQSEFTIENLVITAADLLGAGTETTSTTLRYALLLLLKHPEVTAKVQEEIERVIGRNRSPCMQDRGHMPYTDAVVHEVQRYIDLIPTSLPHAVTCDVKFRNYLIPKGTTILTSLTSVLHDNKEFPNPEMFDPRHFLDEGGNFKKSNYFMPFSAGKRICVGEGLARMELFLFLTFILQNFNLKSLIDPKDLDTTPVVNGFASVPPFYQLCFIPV

COc1cc(-c2ncc(COc3cccc([C@@H](CC(=O)O)C4CC4)c3)nc2CC(C)C)c(F)cn1
IC50 (Cytochrome P450 2C19): > 10 µM
IC50 (Cytochrome P450 1A2): > 10 µM
Activity [1]: 354%
Drug metabolism [2]: Metabolite_Detected
IC50 (Cytochrome P450 3A4): 8 µM
Activity [3]: inactive
Activity (Mus musculus [4]): inactive
Drug metabolism [5]: Metabolite_Detected
Activity (Mus musculus [6]): Active
Activity (Rattus norvegicus [7]): 51024 ng/mL.hr
Activity (Rattus norvegicus [8]): 5275 ng/mL
Activity (Rattus norvegicus [9]): 1405 ng/mL
Activity (Mus musculus [10]): Active
Activity (Mus musculus [11]): inactive
Activity [12]: 104%
Activity [13]: 1170 nM
Activity [14]: 95%
EC50 [15]: 0.894 µM
Activity [16]: 1040 nM
Vd [17]: 0.384 L/kg
Cmax [18]: 1550 ng/mL
clearance [19]: 8.36 mL/min/kg
bioavailability [20]: 123%
bioavailability [21]: 33.6%
bioavailability [22]: 99.4%
CLH [23]: 13.5 mL/min/kg
CLH [24]: 26.8 mL/min/kg
half-life at 1 µM [25]: 1.38 h
half-life at 1 µM [26]: 1.72 h
half-life at 1 µM [27]: 0.8 h
fraction unbound [28]: 0.0045
EC50 [29]: 0.017 µM
